Measurements as given in article PMC8538004, “Identification of a Novel Neuropeptide S Receptor Antagonist Scaffold Based on the SHA-68 Core” (Pharmaceuticals, 2021).
Entries after “also recorded” stand apart in the source; their conditions may differ. Read-outs that look alike come from different tables or passages of the source.

Columns and labels:
[1] = Pharmacokinetic study in C57Bl6 mice; format: in vivo, C57/Bl6 mice; conditions: 30 mg/kg i.p.; for Cmax: mouse, ip
Method: Animals were administered vehicle (1% n-methyl-2-pyrrolidone (NMP) with 0.5% Tween 80 in 0.5% carboxymethyl cellulose (CMC) in water) or compound 14b dissolved in the same vehicle (30 mg/kg, i.p.), and were euthanized at the appropriate timepoints by isoflurane overdose with decapitation. Trunk blood and brains were taken at 15, 30, 60, 120, and 240 min post-injection. Blood was collected in 5 mL tubes that had been preloaded with 0.5 M EDTA so that the final concentration would be approximately 5 mM. Blood/EDTA was centrifuged at 1000× g at 4 °C for 10 min. Plasma was collected and flash-frozen on dry ice and stored at −80 °C until analysis.
Stock solutions of 14b were prepared and diluted serially to generate standard curve and quality control spiking solutions. The concentrations in plasma and brain homogenate for 14b were 0.5, 1, 5, 10, 50, 100, 500, and 1000 ng/mL for standard curves.
Brains were weighed and homogenized at 1:5 (wt:vol) with 50:50 ethanol:water using a Geno/Grinder 2010 (SPEXSamplePrep, Metuchen, NJ, USA) twice at 1750 rpm for 30 s. Subsequently, 50 µL of plasma or brain homogenate was mixed with 150 µL of acetonitrile containing reserpine as internal standard (100 ng/mL) in a 96-well plate. The plate was shaken at 700 rpm for 3 min and then centrifuged at 4000 rpm for 10 min at 4 C. Then, 50 µL of supernatant was mixed with 50 µL of water in a new plate and analyzed by LC/MS-MS.
A SCIEX Exion AD UHPLC system (Framingham, MA) was used to inject 10 µL of the processed samples/calibration standards onto a Waters Acquity BEH C18 (2.1 mm × 100 mm, […]) column (Milford, MA). Mobile phase A consisted of 0.1% formic acid in water, and mobile phase B consisted of 0.1% formic acid in acetonitrile. […] Quantitation was achieved by multiple reaction monitoring in positive ion mode using an SCIEX 6500+ (Framingham, MA) QTRAP mass spectrometer. Compound 14b was quantitated by monitoring the transition of m/z 445.044 → 251.1, and the internal standard, reserpine, was monitored by m/z 609.300 → 194.9. […]

[2] = system: NPS-mediated hyperlocomotion; assay: NPS-stimulated locomotor activity (open field); format: in vivo, C57/Bl6 mice
Method: Male mice between 8 and 12 weeks of age were used for all tests. C57/Bl6 were obtained from the former NCI colony maintained by Charles River. Animals were housed with ad libitum access to food and water on a 12:12 h light:dark cycle with lights on at 06:00. Experiments were conducted between the hours of 09:00 and 15:00. All experiments were approved by the Institutional Animal Care and Use Committee of the State University of New York at Buffalo (PMY09073N) and conducted in accordance with the National Institutes of Health Guide for the Care and Use of Laboratory animals.
Mice were anesthetized using ketamine (100 mg/kg) and xylazine (5 mg/kg) and were secured to a stereotaxic frame once the appropriate plane of anesthesia was reached. An incision was made in order to expose the skull. […]
Open-field testing was conducted in clear plexiglass cages measuring 40 × 40 cm^2 interfaced by a grid array of infrared beams connected to a computer system which tracked and quantified the animals’ location and movements (OMNITECH Instruments, Columbus, OH, USA). […]
Statistical analyses were performed by ANOVA with Tukey’s multiple comparisons test analysis within GraphPad Prism 8 software (GraphPad Software, San Diego, CA, USA). All results are expressed as mean values ± SEM.

Clearance in plasma [1]: 288 mL/min/kg
Cmax ([1]; brain, read-out: Cmax in brain): 186 ng/mL
Cmax ([1]; plasma, read-out: Cmax in plasma): 1940 ng/mL
Compound: CC(C)CC1(c2ccccc2)OC(=O)C2=C1CN(C(=O)NCc1ccccc1)CC2 (single isomer, unassigned; (+)) [Compound 14b, (+) N-benzyl-3-(2-methylpropyl)-1-oxo-3-phenyl-1H,3H,4H,5H,6H,7H-furo[3,4-c]pyridine-5-carboxamide]
Effect on NPS-mediated hyperlocomotion ([2]; 3 mg/kg i.p. pretreatment, NPS 0.3 nmol ICV, total distance first 10 min, Veh-NPS vs. 14b-NPS p = 0.0389): attenuated; also recorded: able to block; also recorded: sufficient to significantly decrease; also recorded: significantly decreased
Effect on locomotion on its own ([2]; 3 mg/kg i.p., aCSF ICV, Veh-aCSF vs. 14b-aCSF p = 0.8199): did not decrease locomotion
